Results taken from PubChem BioAssay (NCI).
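Method: 48-hour compound exposure of cells in 96-well plates, five concentrations, linear interpolation of endpoints. At the TGI there is no net growth.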

Assays:
Experiment in all cases: growth of human tumour cells (NCI), 48 h
PC-3 prostate = tested on: PC-3 prostate
HT29 colon = tested on: HT29 colon
MDA-MB-435 = tested on: MDA-MB-435
SF-295 CNS = tested on: SF-295 CNS
HCT-116 colon = tested on: HCT-116 colon
SNB-19 CNS = tested on: SNB-19 CNS
786-0 renal = tested on: 786-0 renal
UACC-257 melanoma = tested on: UACC-257 melanoma
OVCAR-8 ovarian = tested on: OVCAR-8 ovarian
A498 renal = tested on: A498 renal
SR leukemia = tested on: SR leukemia
KM12 colon = tested on: KM12 colon
SN12C renal = tested on: SN12C renal
M14 melanoma = tested on: M14 melanoma
UO-31 renal = tested on: UO-31 renal
TK-10 renal = tested on: TK-10 renal
SF-539 CNS = tested on: SF-539 CNS
HL-60(TB) leukemia = tested on: HL-60(TB) leukemia
DU-145 prostate = tested on: DU-145 prostate

SMILES	TGI (PC-3 prostate) [µM]	TGI (HT29 colon) [µM]	TGI (MDA-MB-435) [µM]	TGI (SF-295 CNS) [µM]	TGI (HCT-116 colon) [µM]	TGI (SNB-19 CNS) [µM]	TGI (786-0 renal) [µM]	TGI (UACC-257 melanoma) [µM]	TGI (OVCAR-8 ovarian) [µM]	TGI (A498 renal) [µM]	TGI (SR leukemia) [µM]	TGI (KM12 colon) [µM]	TGI (SN12C renal) [µM]	TGI (M14 melanoma) [µM]	TGI (UO-31 renal) [µM]	TGI (TK-10 renal) [µM]	TGI (SF-539 CNS) [µM]	TGI (HL-60(TB) leukemia) [µM]	TGI (DU-145 prostate) [µM]
Cc1ccc(S(=O)(=O)N2CCCC2C(=O)O[C@H]2CC[C@H]3CC=C[C@H]32)cc1 (some centres not stated)	> 100	> 100	> 100	> 100	> 31.6	> 100	> 31.6	67.4	> 100	89	> 69.6	> 100	> 100	> 100	> 100	–	–	–	–
Cc1ccc(/C=C/C(=N/NC(=O)N/N=C(/C=C/c2ccc(C)cc2)C(C)(C)CN2CCCCC2)C(C)(C)CN2CCCCC2)cc1	3.52	2.16	2.76	3.13	2.64	4.4	2.68	3.1	2.88	3.12	0.359	3.01	3.27	1.8	2.28	3.26	3.24	3.35	–
O=C1CC(=O)N(CCc2ccccc2)S(=O)(=O)N1CCc1ccccc1	–	47.5	–	35.4	74.5	87.4	30.8	–	–	34.2	48.2	39.5	> 100	> 100	40.5	> 100	43.5	38.3	–
O=c1cc(-c2ccc(Cl)cc2)oc2cc(OCCCOc3ccc4c(=O)cc(-c5ccc(Cl)cc5)oc4c3)ccc12	–	> 100	–	> 100	> 100	> 100	> 100	> 100	> 100	–	> 100	> 100	> 100	> 100	–	> 100	> 100	> 100	–
O=C(c1cccc(C(=O)c2ccc3c4c(cccc24)C(=O)N(c2ccccc2)C3=O)c1)c1ccc2c3c(cccc13)C(=O)N(c1ccccc1)C2=O	> 100	> 100	> 100	> 100	> 100	> 100	> 100	> 100	> 100	69.5	–	> 100	> 100	> 100	> 100	> 100	> 100	–	> 100
COc1cc(O)c2c(=O)cc(C3(O)C=CC(=O)C=C3)oc2c1	1.37	–	–	2.09	–	–	0.876	1.05	0.586	11.1	0.126	0.447	–	2.37	0.993	0.376	–	2.75	3.18
O=c1[nH]n(Cc2ccccn2)c2ccc([N+](=O)[O-])cc12	> 100	> 100	–	–	> 100	> 100	> 100	> 100	> 100	> 100	> 100	> 100	> 100	> 100	> 100	> 100	> 100	> 100	> 100
CC(C)C(/C=C/c1ccc(Br)cc1)=N\NC(N)=O	–	> 100	–	> 100	> 100	> 100	> 100	> 100	> 100	–	> 100	> 100	> 100	> 100	66.6	> 100	> 100	> 100	–
Cc1ccc(S(=O)(=O)NC(=O)Nc2ccc(S(N)(=O)=O)cc2S(N)(=O)=O)cc1	> 100	> 100	> 100	> 100	> 100	> 100	> 100	> 100	> 100	–	–	> 100	> 100	> 100	> 100	> 100	–	> 100	> 100
Cc1ccc(O)c(C(=O)CCCC(=O)c2cc(C)ccc2O)c1	–	> 100	–	> 100	–	> 100	> 100	> 100	> 100	> 100	–	> 100	> 100	> 100	> 100	> 100	> 100	> 100	–
CC(=O)NNc1nc(C)c(C(/C=C/c2ccc(Cl)cc2)=N/NC(=O)C[N+](C)(C)C)s1	–	> 100	–	> 100	> 100	> 100	> 100	> 100	–	> 100	–	> 100	–	> 100	> 100	> 100	> 100	> 100	–
Cn1ncnc1CCc1ccccc1	–	> 100	–	> 100	> 100	–	> 100	> 100	> 100	> 100	> 100	> 100	> 100	> 100	> 100	> 100	> 100	> 100	–
CC1(C)CC(=O)c2c(nc(SSc3nc4c(c(-c5ccccc5)c3C#N)C(=O)CC(C)(C)C4)c(C#N)c2-c2ccccc2)C1	> 10	> 10	–	> 10	> 10	> 10	> 10	> 10	> 10	> 10	–	> 10	> 10	> 10	> 10	> 10	> 10	> 10	> 10
CC(=O)Nc1ccc(C(=O)NN2C(=O)C(Cl)C2c2ccccc2O)cc1 (configuration not stated)	–	> 100	–	> 100	> 100	> 100	> 100	> 100	> 100	> 100	–	–	> 100	> 100	> 100	> 100	> 100	> 100	–
